Assay results as given in patent US12241087B2, “Compositions and methods for differentiating stem cells into NK cells” (CRISPR THERAPEUTICS AG, priority 2020, dated 2025).

How the values were obtained:
iPSC [1] = test: CD45/CD56 expression on day 28 after early modulation of WNT signaling; format: cell-based, human
Description: For iPSC-HSPC differentiation optimization, CD45/CD56 expression on day 28 was measured (FIG. 10). The HSPC cells on day 6 were further differentiated to iNK in the StemPro-34—based differentiation media Table 12) in the presence of IL7, IL15, SCF. Flt3L, (IL3 was added for days 6-14 only). […] However, it was not an optimal condition as the single cells production and expansion was lower than in conditions in the presence of Activin A molecule (data not shown). Due to low CD56^+ cells formation on day 28, the HSPC to iNK differentiation conditions was optimized.

iPSC [2] = test: Effect of CHIR-99021 concentration in NK-MED-005c medium on iNK induction; format: cell-based, human; conditions: 2.5, 3.5 or 4.5 μM, differentiation day 20, AP2.0
Description: To determine the optimal concentration of CHIR-99021, different concentrations (2.5 μM, 3.5 μM or 4.5 μM) were added to the NK-MED-005c medium (Table 30) to test their effect on iNK induction. Differentiation proceeded according to Protocol 2 (AP2.0) as described in Example 11. Cells were collected and analyzed using flow cytometry to detect CD45^+CD56^+ cells at differentiation day 20.

iPSC [3] = test: Effect of WNT-C59 in NK-MED-006 medium on iNK induction; format: cell-based, human; conditions: 2 μM, day 20 cultures, AP2.0
Description: The effect of including WNT-C59 (2 μM) in NK-MED-006 medium during iNK induction using the AP2.0 protocol was examined. […] The addition of WNT-C59 increased proportion of cells expressing non-NK lineage markers.

HSPC [4] = test: Design of Experiment (DoE) I, day 6 to day 20; format: cell-based, human; conditions: differentiation and number of cells at day 20
Description: This Example reports the identification of optimized concentrations for certain components in the base media. A design of Experiment (DoE) study was performed to determine the concentrations of zinc sulfate, β-mercaptoethanol, human serum, and glucose that would provide the most differentiation and increased number of cells at differentiation day 20. These factors were selected based on known chemical/biological effects of them in affect general cell proliferation and differentiation. Potential positive/negative involvement of β-mercaptoethanol, zinc ion, human serum, and glucose in NIK cell or lymphocyte cell proliferation, killer cell receptor function, and cytotoxicity have been previously reported. There were no known studies conducted on testing optimal range of these factors in NK cell induction from HSPC.

HSPC [5] = test: Stage II basal media testing (HSPC to iNK), day 21 single cells; format: cell-based, human; conditions: in StemPro-based media
Description: This Example investigates the use of various alternative base media that can be used for Stage II differentiation. […] The HSPC to iNK differentiation from day 6 further on was done in StemPro-34—based media (Table 12). […] In this Example, the […] until day 6 as described in Example 2 (i.e., steps 1-5). Each media was supplemented with 20 ng/mL IL7, 20 ng/mL IL15, 20 ng/mL SCF, 20 ng/mL Flt3L and 5 ng/mL of IL-3 for days 6-14 and 20 ng/mL IL7, 20 ng/mL IL15, 20 ng/mL SCF, 20 ng/mL Flt3L for days 14-21 of differentiation.
Day 21 single cells were profiled for CD45^+/CD56^+, CD56^+/NKG2D^+, CD56^+/CD94^+, and CD56^+/CD16^+ expression (FIG. 12). […] The DMEM/F12 2:1 basal media was chosen due to its price and higher availability for scale up production.

HSPC [6] = test: Effect of β-mercaptoethanol on differentiation, CD45 and CD56 expression; format: cell-based; conditions: 50 μM in DMEM/F12 media with low zinc, low human serum
Description: To determine the effects of β-mercaptoethanol on differentiation, CD45+ and CD56+ expression was measured in cells cultured in Stempro34 media, DMEM/F12 media with low zinc, low human serum, and no β-mercaptoethanol (bME), or DMEM/F12 media with low zinc, low human serum, and 50 μM β-mercaptoethanol.

## Cc1cnc(-c2cnc(NCCNc3ccc(C#N)cn3)nc2-c2ccc(Cl)cc2Cl)[nH]1 [CHIR-99021, 6-[[2-[[4-(2,4-Dichlorophenyl)-5-(5-methyl-1H-imidazol-2-yl)-2-pyrimidinyl]amino]ethyl]amino]-3-pyridinecarbonitrile]
iPSC [1]; day 28, condition #5, StemPro-34 based media
  CD56+ percentage: highest
iPSC [1]; versus conditions with Activin A, data not shown
  single cells production and expansion: lower
iPSC [2]
  proportion of CD45+CD56+ cells: highest proportion of CD45^+CD56^+ cells were collected using a moderate amount

## Cc1cc(-c2ccc(CC(=O)Nc3ccc(-c4cccnc4)cc3)cc2)ccn1 [WNT-C59]
iPSC [3]
  proportion of cells expressing non-NK lineage markers: increased
  proportion of iNK that expressed the myeloid progenitor marker CD33: altered

## O=S(=O)([O-])[O-].[Zn+2] [Zinc sulfate]
HSPC [4]
  direction of effect in DoE I: positive effect

## OCCS [β-mercaptoethanol]
HSPC [5]
  iNK differentiation: prevented iNK differentiation
HSPC [6]
  effect on iNK cell induction: negative effect
HSPC [4]
  direction of effect in DoE I: negative effect
